Results: PMC5459853, “Cathepsin S inhibition combines control of systemic and peripheral pathomechanisms of autoimmune tissue injury” (Scientific Reports, 2017)

How the values were obtained:
MRL-(Fas)lpr mice [1] = test: Experimental lupus nephritis, late onset of treatment week 15 to 19; assay type: in vivo; settings: late onset week 15-19
Method: To further assess the potency of Cat-S inhibition to control advanced lupus nephritis we performed identical experiments with the highest dose of RO5459072 and MMF, which were not initiated before week 15 of age and continued for only 4 weeks and terminated again at week 19.
(§1) Four-week-old female MRL-(Fas)lpr mice were purchased from Harlan Winkelmann (Borchen, Germany) and kept under pathogen-free conditions in a 12 hour light and dark cycle with free access to food and water. All animal experiments were performed in accordance with the European protection laws of animal welfare, and with approval by the local government authorities Regierung von Oberbayern (reference number: 55.2.1-54-2532.2-11-12). At 11 or 15 weeks of age only mice with proteinuria (Albustix, Bayer AG, Leverkusen, Germany) were randomized into five different groups (n = 10) receiving different medicated diets: Three groups were fed with chow mixed with either 3, 10 or 30 mg/kg/day RO5459072, another group’s chow was mixed with 100 mg/kg/day mycophenolate mofetil (MMF), and one group received a standard diet (vehicle). The dose of MMF was chosen according to several studies reporting strong efficacy on SLE and lupus nephritis in MRL-(Fas)lpr mice[24]–[26]. […] At the age of 19 weeks all mice were sacrificed by cervical dislocation. Blood and urine samples were collected at different time points as indicated. In other experiments 7 week old female MRL-(Fas)lpr mice were randomized into three groups (n = 3) to receive a single intravenous injection of 10 µg sterile recombinant Cat-S and one group receiving vehicle (100 µl sterile PBS). One of the Cat-S groups was pretreated with 30 mg/kg/day RO5459072 starting one week prior to Cat-S injection; another group was pretreated with a total of four daily intra-peritoneal injections of the PAR-2 inhibitor GB83 (10 mg/kg).
(§2) Kidney tissue samples were collected from all mice and fixed overnight in 4% buffered formalin. Subsequently the fixed tissue samples were embedded in paraffin and cut into 4 µm thick serial sections. Kidney paraffin sections were stained with periodic acid-Schiff (PAS) reaction using standardized protocols as described. Scoring of lupus nephritis activity and chronicity indices was performed according to human lupus nephritis, [43]. Methenamine silver staining was performed on paraffin embedded kidney sections and semiquantitatively scored form 0–3 by a blinded observer. For immunostaining the following primary antibodies were used: anti-mouse CD3 (Abcam, Cambridge, UK), complement C3c (Biobyt Ltd, Cambridge, UK), CD31 (Dianova GmbH, Hamburg, Germany), WT1 (Santa Cruz Biotechnology, Dallas, Texas) and nephrin (Acris Antibodies, San Diego, CA). The immunostaining for C3c and CD31 were analyzed using the ImageJ software by measuring positively stained area and dividing it by the total area of the glomerulus and reported as percentage of +ve area. Sections stained for WT1/nephrin and CD3 were evaluated by counting positive cells per glomerulus. All the morphometric analysis were carried out in a blinded fashion.
(§3) Urinary albumin/creatinine ratios were determined using the Mouse Albumin ELISA Quantitation set (Bethyl Laboratories, Montgomery, TX) and the Creatinine FS kit (DiaSys Diagnostic Systems, Holzheim, Germany)[44]. BUN levels were determined in plasma samples using a Urea FS kit (DiaSys Diagnostic Systems). Mouse IgM, IgG and its isotypes IgG1, IgG2a and IgG2b plasma levels were measured using ELISA Sets (Bethyl Laboratories) at a plasma dilution of 1:1,000 to 1:100,000. Double-stranded DNA IgG and IgM antibodies were quantified as described. Briefly, 96 well Nunc-Immuno plates (Thermo Fisher Scientific, Roskilde, Denmark) were coated with poly-L-lysine (1:1 diluted with PBS) and incubated for two hours. After washing the plates, the plates were coated with 1 µg/ml mouse tail dsDNA sparing the wells for standards, which were coated with anti-mIgG and anti-mIgM (Bethyl Laboratories). […]

Human Cat-S = Human Cat-S (Homo sapiens, UniProt P25774); test: Enzymatic isoform-selectivity assay, human Cat-S; assay type: biochemical; settings: read-out: apparent IC50, human Cat-S
Method: RO5459072 was provided by F. Hoffmann-La Roche, Ltd., Basel, Switzerland. It is a competitive inhibitor of the active site of Cat-S and its nitrile function allows covalent reversible inhibition of Cat-S. The synthesis of RO5459072 has been described in WO 2010121918 and WO 2013068434. Recombinant cathepsins were produced in-house or were purchased from commercial vendors. Initial enzymatic assays to determine isoform-selectivity in vitro were performed as previously described, [23]. […] For this the Cat-S-dependent hydrolysis of the fluorogenic substrate Z-Phe-Arg-AMC (Sigma Aldrich) was followed at various inhibitor concentrations. The active fraction of Cat-S was detemined as 70% with a HPLC assay measuring modification of Cat-S with the covalent inhibitor LHVS. The buffer (100 mM potassium phosphate, 50 mM NaCl, 5 mM EDTA, 5 mM TCEP, pH 6) was thoroughly degassed prior to perfoming measurements to prevent oxidation of the catalytic cystein residue by dissolved oxygen. For the Ki-determination the substrate was employed at 10 µM = KM. All kinetic measurements were performad on a SFM-3000 stopped-flow instrument (Bio-Logic Science Instruments) and data were analyzed with GraphPad Prism v5.

MRL-(Fas)lpr mice [2] = test: Experimental SLE and lupus nephritis, treatment week 11 to 19; assay type: in vivo
Method: as §1, §2
as §3, with “Laboratories). The standard curve was fixed from purified mIgG and mIgM (Bethyl Laboratories). The plasma samples were diluted 1:1,000 and added into the wells. After 1 h the assay was developed using HRP-labelled goat anti-mIgG and anti-mIgM and TMB substrate (BD Bioscience, San Diego, CA).” for “Laboratories).”

Sequence of Human Cat-S (P25774 115-331): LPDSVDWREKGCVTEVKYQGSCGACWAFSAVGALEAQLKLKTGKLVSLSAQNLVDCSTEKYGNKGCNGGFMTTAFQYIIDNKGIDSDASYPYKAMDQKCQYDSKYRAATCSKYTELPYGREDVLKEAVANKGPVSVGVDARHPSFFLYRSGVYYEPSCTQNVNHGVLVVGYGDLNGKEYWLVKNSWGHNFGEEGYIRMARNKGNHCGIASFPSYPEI

IC50 (Human Cat-S): 0.1 nM
SMILES: Cn1cc(-c2ccc(S(=O)(=O)[C@@H]3C[C@@H](C(=O)NC4(C#N)CC4)N(C(=O)C4(C(F)(F)F)CC4)C3)c(C(F)(F)F)c2)cn1 [RO5459072]
lupus nephritis disease activity index (MRL-(Fas)lpr mice [1]): significantly reduced | lupus nephritis disease chronicity index (MRL-(Fas)lpr mice [1]): failed to significantly suppress | proteinuria and BUN at week 19 compared to control mice (MRL-(Fas)lpr mice [1]): significantly reduced | plasma IgG and its isotypes and anti-dsDNA IgG (MRL-(Fas)lpr mice [1]; highest dose of RO5459072, MMF): significantly suppressed | intrarenal mononuclear phagocyte and T cell subsets (MRL-(Fas)lpr mice [2]; flow cytometry of kidneys): suppressed | reduction of urinary albumin/creatinine (A/C) ratio more than MMF (MRL-(Fas)lpr mice [2]; highest dose of RO5459072 versus MMF): 2 log scales | plasma levels of antinuclear antibodies (MRL-(Fas)lpr mice [2]; highest dose, week 19): suppressed | food intake or body weight between groups (MRL-(Fas)lpr mice [2]; medicated diets, throughout the study period): no significant difference | intrarenal mRNA expression of IL-6, MCP-1/CCL2, RANTES/CCL5 and CXCL2 (MRL-(Fas)lpr mice [2]; real time PCR, kidney): suppressed | intrarenal mRNA expression of TNF-α, IFN-γ and SDF-1/CXCL12 (MRL-(Fas)lpr mice [2]; real time PCR, kidney): remained unaffected | blood urea nitrogen (BUN) over time (MRL-(Fas)lpr mice [2]; week 11-19): prevented the progressive increase | podocyte number and proteinuria (MRL-(Fas)lpr mice [2]; week 11-19): protective effect | dsDNA IgM (MRL-(Fas)lpr mice [2]; week 11-19, ELISA): did not affect | total levels of plasma IgM (MRL-(Fas)lpr mice [2]; week 11-19, ELISA): did not affect | spleen plasma cells and plasma IgG levels and IgG isotypes (MRL-(Fas)lpr mice [2]; week 11-19, RO5459072 3, 10, 30 mg/kg/day, MMF 100 mg/kg/day): dose-dependently suppressed | plasma dsDNA IgG levels (IgG autoantibodies) (MRL-(Fas)lpr mice [2]; week 11-19, RO5459072 highest dose, MMF 100 mg/kg/day, ELISA): suppress plasma dsDNA IgG levels below baseline | spleen CD11c+/CD11b+/MHCII+ antigen-presenting cells (MRL-(Fas)lpr mice [2]; week 11-19, flow cytometry): suppressed | spleen CD11c+/F4/80+/MHCII+ cells (MRL-(Fas)lpr mice [2]; week 11-19, flow cytometry): suppressed | complement C3 deposits, diffuse proliferative glomerular lesions and glomerulosclerosis (MRL-(Fas)lpr mice [2]; week 19): less | integrity of the glomerular vasculature (CD31 staining) (MRL-(Fas)lpr mice [2]; week 19): improved | activity and chronicity scores of nephritis (MRL-(Fas)lpr mice [2]; week 19, PAS sections): dose-dependently reduced
